For data set [1] the following is noted: Trappe et al. 2002; cited from earlier work.
For data set [2] the following is noted: Barlas et al.; 11-day study period, 60 study subjects; cited from earlier work.
Data set [3] in a line: Example 1: blood pressure, heart rate and clinical chemistry before and after HICA. The format is in vivo, human. As to conditions: n = 7, after 42 days. An excerpt:
(§1) In order to assess the effects of HICA (α-hydroxy-isocaproic acid) on exercise induced muscle pain and body composition, 0.496 g of HICA (produced in VTT Technical Research Centre of Finland, Helsinki) was given thrice daily after intensive training sessions to 7 healthy volunteers for 42 days in an open study. The volunteers were national top wrestlers, weighing 79.7+/−4.5 kg (mean+/−SD) and aging 26+/−6 years (mean+/−SD). They had at least 10 training sessions a week, each lasting from 1.5 to 2.5 hours. Before the study the subjects underwent a medical examination. Twenty ml of blood was taken for chemical assays and the body weight and body composition were assessed by dual-energy X-ray absorptiometry (DEXA; LUNAR GE Medical Systems) just before starting the 42-day HICA intake. The subjects took HICA orally as liquid (62.5 g HICA dissolved in 630 ml water and buffered by NaOH to pH 3.8). The single dose taken three times a day after each training session was 5 ml (containing […] of HICA) of the solution mixed with apple juice. On those days they had less than three training session they took extra doses of HICA so that 3 doses were taken each day. The total daily dose was 1488 mg of HICA.

The nature of data set [4]: Example 1: subjects' reports of muscle pain, stiffness, aches, power performance and adverse effects. The format is in vivo, human. An excerpt: In order to assess the effects of HICA (α-hydroxy-isocaproic acid) on exercise induced muscle pain and body composition, 0.496 g of HICA (produced in VTT Technical Research Centre of Finland, Helsinki) was given thrice daily after intensive training sessions to 7 healthy volunteers for 42 days in an open study. The volunteers were national top wrestlers, weighing 79.7+/−4.5 kg (mean+/−SD) and aging 26+/−6 years (mean+/−SD). They had at least 10 training sessions a week, each lasting from 1.5 to 2.5 hours.
The subjects took HICA orally as liquid (62.5 g HICA dissolved in 630 ml water and buffered by NaOH to pH 3.8). The single dose taken three times a day after each training session was 5 ml (containing […] of HICA) of the solution mixed with apple juice. On those days they had less than three training session they took extra doses of HICA so that 3 doses were taken each day. The total daily dose was 1488 mg of HICA.
Subjects were asked to report all feelings they would associate with the treatment with HICA, e.g. pain, stiffness or aches in muscles felt during and after the training sessions.

The conditions of data set [5]: commercially available colorless crystals; cited from earlier work.
Data set [6] has as its system mice. As to conditions: iv. in mice, Na-salt; cited from earlier work.
Data set [7] is described as follows: Example 2: basket ball player case study, body composition by DEXA. The format is in vivo, human. The procedure:
(§2) A basket ball player (weight 83.7 kg; BMI 26.8 kg/m^2) took after intensive daily training sessions 0.496 g of HICA three times a day for 42 days in an identical design as described in Example 1. The composition of their soft tissue was analyzed in detail. DEXA-results were analyzed by a software discriminating successfully between bone, fat and lean body mass.

The nature of data set [8]: Example 1: open 42-day study in top wrestlers, body weight and body composition by DEXA. The format is in vivo, human.
Description: as §1, with “hours. During 6 weeks preceding the HICA period there were no essential changes in the body weight of the wrestlers. At least for 6 weeks before and during the trial daily diets and the number, intensity, and length of daily training sessions were kept constant.” for “hours.”

Test in data set [9]: as above
As to conditions: individual subjects 1-7; after 42 days, 0.496 g thrice daily orally. The format is in vivo, human.

A short description of data set [10]: Example 2: subjective muscle aches and laboratory tests. The format is in vivo, human. The note with it: one basket ball player. As to the method: as §2
Where [11] appears, read: after vs before 42-day treatment.
Where [12] appears, read: one basketball player, after 42-day treatment.
Where [13] appears, read: individual subjects 1-7, after 42 days.
Setting [14] is: individual subjects 1-7, after 42 days, DEXA.
[15] abbreviates: mean of 7 subjects, after 42 days, P < 0.05 vs before.

Several values for one entry are separate records, joined by “and”; a condition that tells them apart may be missing. Equal values may be shown once.

By LD50 is commonly meant the dose at which mortality reaches 50%.

On to `CC(C)Cc1ccc(C(C)C(=O)O)cc1` (centres unmarked) [ibuprofen], for which, in data set [1], the “effect on eccentric resistant training induced muscle soreness” value is “Neither ibuprofen nor paracetamol reduced eccentric resistant training induced muscle soreness”.
As to `CC(=O)Nc1ccc(O)cc1` [paracetamol], the “effect on eccentric resistant training induced muscle soreness” value in [1] is given as “Neither ibuprofen nor paracetamol reduced eccentric resistant training induced muscle soreness”. Further, the “effect on delayed-onset muscle soreness induced by eccentric exercise” value (from here on “effect … by eccentric exercise”) in data set [2] was “neither aspirin, paracetamol nor codeine had a beneficial effect”.
In the case of `COc1ccc2c3c1O[C@H]1[C@@H](O)C=C[C@H]4[C@@H](C2)N(C)CC[C@@]341` [codeine], in data set [2], the “effect … by eccentric exercise” value is on record as “neither aspirin, paracetamol nor codeine had a beneficial effect”.
For `CC(C)CC(O)C(=O)O` (racemic) [HICA, DL-α-hydroxy-isocaproic acid], in data set [3] (NS), the “B-Erythrocytes, After HICA, mean” value is 4.9 E12/l; the “B-Hematocrite, After HICA, mean” value came to 42.6%; the “B-Hemoglobin, After HICA, mean” value came to 149.1 g/L; the “B-Leucocytes, After HICA, mean” value is given as 5.7 E9/l. Besides, in data set [3] (NS), the “E-MCH, After HICA, mean” value turned out to be 30.4 pg; the “E-MCHC, After HICA, mean” value was 347.9 g/L; the “E-MCV, After HICA, mean” value amounted to 87.4 fL; the “S-Alanine amino transferase, After HICA, mean” value is listed as 31.6 U/l. Also, in data set [3] (NS), the fS-Creatinine, After HICA, mean stood at 89.2 µM and the “heart rate, After HICA, mean” value was found to be 62.0 min⁻¹. Further, in [3] (P < 0.01 vs before), the “diastolic blood pressure, After HICA, mean” value amounted to 75.7 mmHg. Besides, in data set [3] (P < 0.05 vs before), the “systolic blood pressure, After HICA, mean” value amounted to 139.7 mmHg. In [4] (42-day treatment, 7 top athletes), the adverse effects entry is given as “without any adverse effects”. Besides, the “pain, stiffness and aches in muscles felt during and after the training sessions (subjects' reports)” value in [4] (all 7 subjects, 42-day treatment) was “abolishment of pain, stiffness and aches in muscles”. Also, the “subjects reporting enhanced power performance” value in [4] (subjective, after the treatment with HICA) is on record as 6 out of 7. For the same molecule, in data set [5], the solubility result is “soluble in water and alcohols”. Besides, in data set [6], the LD50 is 650 mg/kg. Further, in [7] (DEXA, one basket ball player, 42 days), the “gain of lean body mass during the treatment” value was 2.65 kg. For the same molecule, in data set [7] (setting [11]), the “bone, Change” value was “+0.0 g”; the fat, Change was found to be 0.3 kg; the lean, extremities, Change worked out at 1.6 kg; the “lean, other, Change” value is given as “+0.0 g”. In addition, in [7] (setting [11]), the “lean, total, Change” value is “+2.7 g”; the lean, trunk, Change was determined as 1 kg; the weight, Change was 3 kg. Also, in data set [7] (setting [12]), the “bone, After HICA” value is on record as 4.1 kg; the “fat, After HICA” value is 8.1 kg; the “lean, extremities, After HICA” value was determined as 34.8 kg; the “lean, other, After HICA” value is 4.3 kg. In addition, in data set [7] (setting [12]), the “lean, total, After HICA” value came out at 74.4 kg; the “lean, trunk, After HICA” value was 35.45 kg; the “weight, After HICA” value was 86.6 kg. Further, the “change of bone weight (DEXA)” value in data set [8] (42-day treatment, 7 subjects) is “not changed”. The “change of total soft tissue mass (total weight - bone weight)” value in data set [8] (42-day treatment, P<0.05, paired t-test) is “increased significantly”. For the same molecule, in data set [8] (42-day treatment, P<0.05 and P<0.001, respectively), the “change of soft tissue masses of all extremities and trunk” value was “increased significantly”. Moreover, in data set [8] (setting [13]), the “Total weight of soft tissue in extremities, After HICA” value was 33.2 kilograms and 35.7 kilograms (2×) and 34.7 kilograms and 38.5 kilograms and 35.2 kilograms and 39.0 kilograms; the “Total weight of soft tissue in trunk, After HICA” value is 38.0 kilograms and 38.3 kilograms and 39.7 kilograms and 40.4 kilograms and 43.1 kilograms and 39.8 kilograms and 44.8 kilograms. In addition, in data set [8] (setting [14]), the “Bone weight, After HICA” value is 4.1 kilograms (2×) and 4.4 kilograms and 4.0 kilograms (2×) and 3.6 kilograms and 3.9 kilograms; the “Soft tissue weight, After HICA” value was 75.0 kilograms and 83.7 kilograms and 71.2 kilograms and 74.0 kilograms and 75.4 kilograms and 75.1 kilograms and 81.6 kilograms. For the same molecule, in data set [8] (mean of 7 subjects, after 42 days, P < 0.001 vs before), the “Total weight of soft tissue in trunk, After HICA, mean” value is 40.6 kilograms. In data set [8] (setting [15]), the “Soft tissue weight, After HICA, mean” value is listed as 76.6 kilograms; the “Total weight of soft tissue in extremities, After HICA, mean” value was found to be 36.0 kilograms; the “Whole body weight, After HICA, mean” value came to 80.57 kilograms. For the same molecule, the “Bone weight, After HICA, mean” value in [8] (mean of 7 subjects, after 42 days, nonsignificant vs before) was determined as 4.0 kilograms. The “mean weight gain during the treatment period” value in [8] (mean+/-SD, 7 subjects, 42-day treatment, P<0.05 paired t-test) is 0.8 kg and 0.84 ± 1.0 kg. Further, the “Whole body weight, After HICA” value in data set [9] was 79.1 kilograms and 88.1 kilograms and 75.2 kilograms and 77.6 kilograms and 79.3 kilograms and 79 kilograms and 85.7 kilograms. For the same molecule, the “exercise related muscle aches and pains (subjective report)” value in data set [10] (42 days) was “disappearance of all exercise related muscle aches and pains”. Further, in data set [10] (data not shown), the “laboratory tests, e.g. blood pressure, heart rate or blood analyses” value is reported as “no changes”.
Consider `CC(=O)Oc1ccccc1C(=O)O` [aspirin], for which the “effect … by eccentric exercise” value in data set [2] is given as “neither aspirin, paracetamol nor codeine had a beneficial effect”.

The values are drawn from patent publication US20080108698A1, “Nutrient Supplement and Use of the Same” (OY ELMOMED LTD, priority 2004, published 2008).
